We go through eight molecules from EP0094245A2, “Dihydronaphthyridine derivatives, their preparation and compositions containing them” (SANKYO COMPANY LIMITED, priority 1982, dated 1983).

Assay [1] relates to Male Wistar rats. Kind of assay: Pain test for analgesic activity (modified Randall-Selitto, Brewers' yeast inflamed paw). The class given is in vivo. The following applies: po; number of effective animals / total number of animals in group; 50 mg/kg orally; pain threshold 1 and 2 hours after administration; effective = at least twice mean pain threshold of controls. The protocol:
Pain test for analgesic activity
This test was conducted according to a modification of the method reported by L.O. Randall and J.J. Selitto in Arch. Int. Pharmacodyn., 11, 409 (1959), proposed by Winter and Flatake (1957).
Male Wistar rats of 4 weeks of age and weighing 60-90 g were injected with 0.1 ml of a 20% by weight suspension of Brewers' yeast in the right hind paw. […] Each of these was given orally a test compound as an aqueous tragacanth suspension at a dose of 50 mg/kg. 1 and 2 hours after administration of the test compound, the pain threshold was determined by observing pain responses (such as struggling or squeaking) when the inflamed or normal paw was subjected to pressure by a machine (Ugo-Basile). […] The results are reported as the number of effective animals as a proportion of the total number of animals in each group.

Assay [2] relates to Male Wistar rats. Kind of assay: Carrageenin oedema test for anti-inflammatory activity. The following applies: Rattus norvegicus, po, inhibitory rate, 100 mg/kg per os, paw volume 3 hours after carrageenin injection. In kind it is in vivo. The protocol: Details of certain of the pharmacological tests are as follows: • Carrageenin oedema test for anti-inflammatory activity
Male Wistar rats weighing 120-150 g were fasted overnight and then received a test compound per os as an aqueous tragacanth suspension. 30 minutes later, inflammation was induced by the subcutaneous injection of 0.05 ml of a 1% carrageenin suspension into the plantar tissue of a hind paw of each rat [Winter et al., Proc. Soc. Exp. Biol. Med., 111, 544 (1962)]. The anti-oedema activity was measured volumetrically, by assessing the response, as calculated from the following equation: [formula] where Vo and V represent, respectively, the paw volume immediately before and 3 hours after the carrageenin injection. The test compounds were administered at a dose of 100 mg/kg and the results are reported in the following Table as the inhibitory rate, that is the percentage inhibition of the […].

The molecule `COc1ccc2c(n1)C(C)=CC(C)(C)N2C(C)=O` [Compound No. 27, 1-acetyl-6-methoxy-2,2,4-trimethyl-1,2-dihydro-1,5-naphthyridine] had a responders at 50 mg/kg in assay [1] of 20%. In assay [2], this molecule had an inhibition in vivo at 100 mg/kg of 53.3%.

Molecule `COc1ccc2c(n1)C(C)=CC(C)(C)N2` [Compound No. 1, 6-methoxy-2,2,4-trimethyl-1,2-dihydro-1,5-naphthyridine] had a responders at 50 mg/kg in assay [1] of 60%. In addition, the inhibition in vivo at 100 mg/kg in assay [2] was found to be 62.6%.

Turning to `CCOc1ccc2c(n1)C(C)=CC(C)(C)N2` [Compound No. 2, 6-ethoxy-2,2,4-trimethyl-1,2-dihydro-1,5-naphthyridine], in assay [1], the responders at 50 mg/kg was 20%. In addition, in assay [2], the inhibition in vivo at 100 mg/kg came out at 58.2%.

In turn, `CCCCOc1ccc2c(n1)C(C)=CC(C)(C)N2` [Compound No. 4, 6-butoxy-2,2,4-trimethyl-1,2-dihydro-1,5-naphthyridine] had a responders at 50 mg/kg in assay [1] of 60%. In assay [2], this molecule returned an inhibition in vivo at 100 mg/kg of 65.4%.

With `COc1ccc2c(n1)C(C)=CC(C)(C)N2C` [Compound No. 25, 6-methoxy-1,2,2,4-tetramethyl-1,2-dihydro-1,5-naphthyridine], the responders at 50 mg/kg in assay [1] was 40%. Also, the inhibition in vivo at 100 mg/kg in assay [2] is 54.8%.

In assay [1], `CC1=CC(C)(C)Nc2ccc(Cl)nc21` [Compound No. 13, 6-chloro-2,2,4-trimethyl-1,2-dihydro-1,5-naphthyridine] showed a responders at 50 mg/kg of 60%. Further, 100 mg/kg produced 56.6% inhibition in vivo in assay [2].

In assay [1], `CC1=CC(C)(C)Nc2ccc(Oc3ccccc3)nc21` [Compound No. 5, 2,2,4-trimethyl-b-phenoxy-1,2-dihydro-1,5-naphthyridine] gave a responders at 50 mg/kg of 60%. Moreover, the inhibition in vivo at 100 mg/kg in assay [2] was found to be 53.6%.

For the molecule `CC1=CC(C)(C)Nc2ccc(Oc3cccnc3)nc21` [compound 18, 2,2,4-trimethyl-6-(3-pyridyloxy)-1,2-dihydro-1,5-naphthyridine], the responders at 50 mg/kg in assay [1] is 80%. The molecule also showed an inhibition in vivo at 100 mg/kg in assay [2] of 76%.
